# Experimental data as given in ChEMBL document CHEMBL4007434, “Indazole-Based Covalent Inhibitors To Target Drug-Resistant Epidermal Growth Factor Receptor” (J Med Chem, 2017).
# Activity calls are given as the source filed them. The rule behind the calls is not given here.
# Key:
# [1] = target: T1, Epidermal growth factor receptor (Homo sapiens, UniProt P00533); assay type: ADME
# [2] = target: T1, Epidermal growth factor receptor; test: Inhibition of wild-type EGFR in human A431 cells assessed as reduction in cell viability after 96 hrs by CellTiterGlo assay; assay type: ADME, cell-based
# [3] = system: Epidermal growth factor receptor (Homo sapiens), P00533 [T790M]; test: Binding affinity to EGFR T790M mutant (unknown origin) assessed as covalent adduct formation at 100 uM after 1 hr by ESI-MS analysis
# [4] = target: Tyrosine-protein kinase Blk (Homo sapiens) (UniProt P51451); test: Inhibition of full-length recombinant human His-tagged cytoplasmic BLK expressed in baculovirus expression system at 1 uM by Z'-LYTE assay
# Tyrosine-protein kinase Blk (Homo sapiens), sequence (P51451 2-505 limits assumed): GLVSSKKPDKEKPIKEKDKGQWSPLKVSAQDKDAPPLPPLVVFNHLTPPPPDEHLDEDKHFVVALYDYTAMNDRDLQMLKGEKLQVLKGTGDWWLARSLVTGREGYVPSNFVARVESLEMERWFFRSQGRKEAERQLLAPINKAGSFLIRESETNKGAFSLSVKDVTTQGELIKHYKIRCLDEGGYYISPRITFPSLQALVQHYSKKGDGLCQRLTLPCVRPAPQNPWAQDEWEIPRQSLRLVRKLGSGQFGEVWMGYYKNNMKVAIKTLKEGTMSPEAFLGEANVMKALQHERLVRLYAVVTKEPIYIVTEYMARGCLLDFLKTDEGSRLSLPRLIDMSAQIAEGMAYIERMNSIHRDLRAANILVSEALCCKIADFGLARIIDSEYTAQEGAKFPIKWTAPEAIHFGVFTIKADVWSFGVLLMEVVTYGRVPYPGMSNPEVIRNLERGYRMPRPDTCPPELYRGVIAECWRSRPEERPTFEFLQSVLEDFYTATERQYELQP
# [5] = target: T2, Cytoplasmic tyrosine-protein kinase BMX (Homo sapiens) (UniProt P51813); test: Inhibition of full-length recombinant human His-tagged cytoplasmic BMX expressed in baculovirus expression system at 1 uM by Z'-LYTE assay
# T2 sequence (whole entry): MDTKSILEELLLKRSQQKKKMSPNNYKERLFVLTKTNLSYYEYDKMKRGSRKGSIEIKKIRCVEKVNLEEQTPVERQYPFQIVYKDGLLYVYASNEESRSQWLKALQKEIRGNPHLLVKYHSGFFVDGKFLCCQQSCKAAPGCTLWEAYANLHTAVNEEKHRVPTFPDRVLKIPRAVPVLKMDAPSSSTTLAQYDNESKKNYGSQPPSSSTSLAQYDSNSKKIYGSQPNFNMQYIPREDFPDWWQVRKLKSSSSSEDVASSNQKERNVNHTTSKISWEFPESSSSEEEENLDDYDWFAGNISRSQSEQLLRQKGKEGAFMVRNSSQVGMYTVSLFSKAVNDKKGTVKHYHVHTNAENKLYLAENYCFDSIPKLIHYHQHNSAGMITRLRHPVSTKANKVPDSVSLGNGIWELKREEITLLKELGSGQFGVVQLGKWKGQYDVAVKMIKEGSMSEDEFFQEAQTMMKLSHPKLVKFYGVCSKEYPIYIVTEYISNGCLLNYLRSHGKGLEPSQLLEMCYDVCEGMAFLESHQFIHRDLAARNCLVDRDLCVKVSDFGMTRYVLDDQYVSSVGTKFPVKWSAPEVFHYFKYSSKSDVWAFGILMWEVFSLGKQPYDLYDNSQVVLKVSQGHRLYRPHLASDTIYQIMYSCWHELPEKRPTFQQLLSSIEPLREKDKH
# Liver = test: Stability in mouse liver microsomes at 3 uM up to 50 mins by LCMS analysis; assay type: ADME, microsome
# [6] = Stability in human plasma assessed as compound remaining at 5 uM after 1 hr by LCMS analysis; assay type: ADME, cell-free; details: read-out: Stability
# [7] = Stability in mouse plasma assessed as compound remaining at 5 uM after 1 hr by LCMS analysis; assay type: ADME, cell-free; details: read-out: Stability
# [8] = target: T1, Epidermal growth factor receptor; test: Reversible inhibition of wild-type human N-terminal GST-tagged EGFR cytoplasmic domain (669 to 1210 end amino acid residues) expressed in baculovirus expression system using TK peptide substrate preincubated for 2 to 90 mins followed by 6-fold dilution
# [9] = target: Epidermal growth factor receptor (Homo sapiens, UniProt P00533, L858R/T790M); test: Reversible inhibition of human N-terminal GST-tagged EGFR L858R/T790M double mutant cytoplasmic domain (669 to 1210 end amino acid residues) expressed in baculovirus expression system using TK peptide substrate preincubated for 2 to 90 mins followed by 6-fold dilution
# [10] = system: Epidermal growth factor receptor (Homo sapiens), P00533 [L861Q]; details: 1 uM
# [11] = system: Epidermal growth factor receptor (Homo sapiens), P00533 [L858R,T790M]; details: 1 uM
# [12] = system: Epidermal growth factor receptor (Homo sapiens), P00533 [L858R,T790M]
# [13] = system: Epidermal growth factor receptor (Homo sapiens), P00533 [L858R,T790M]; details: 100 nM
structure (smiles),measurement,setting,value
C=CC(=O)Nc1cc(Nc2n[nH]c3cc(Nc4cccc(F)c4)ccc23)c(OC)cc1N(C)CCN(C)C,IC50,[1],< 1 nM
same,EC50,[2],3100 nM
same,Activity,[3],Active
same,inhibition,[4],> 85%
same,inhibition,[5],> 85%
same,Stability,Liver,Stable
same,"remaining at 1 h, 5 µM",[6],> 75%
same,"remaining at 1 h, 5 µM",[7],> 90%
same,Ki,[8],5.1 nM
same,Ki,[9],7.4 nM
same,inhibition,[10],> 95%
same,inhibition,[11],> 95%
same,Kinact,[12],0.17 min⁻¹
same,inhibition,[13],Active
